Where a SMILES comes first, the peptide text is derived from it. Bridges are numbered along the chain shown (N, C = ends). [ ]: non-standard residue; d: D form. The star is where a group is joined. hPhe(3-Cl-4-CF3) = N[C@@H](CCc1ccc(C(F)(F)F)c(Cl)c1)C(=O)O; NPrPhe(4-CF3) = CCCN[C@@H](Cc1ccc(C(F)(F)F)cc1)C(=O)O; Pro(4-spirocPr) = O=C(O)[C@@H]1CC2(CC2)CN1; NMeGly(cPent) = CN[C@H](C(=O)O)C1CCCC1; NMeD = CN[C@@H](CC(=O)O)C(=O)O; NMeL = CN[C@@H](CC(C)C)C(=O)O; Morpholide = C1CN(*)CCO1; NMeA = CN[C@@H](C)C(=O)O; Ac5c = NC1(C(=O)O)CCCC1; Aze = O=C(O)[C@@H]1CCN1; Sar = CNCC(=O)O
Key:
[1] = target: GDP-bound NRAS wild-type protein (Homo sapiens, UniProt P01111); assay: Binding to NRAS by surface plasmon resonance (SPR), Single Cycle Kinetics; details: for NRAS/KRAS (ratio of KD value with respect to NRAS to KD value with respect to KRAS): GDP-bound NRAS wild-type vs GDP-bound KRAS wild-type
[2] = target: GDP-bound HRAS wild-type protein (Homo sapiens, UniProt P01112); assay: Binding to HRAS by surface plasmon resonance (SPR), Single Cycle Kinetics; details: for HRAS/KRAS (ratio of KD value with respect to HRAS to KD value with respect to KRAS): GDP-bound HRAS wild-type vs GDP-bound KRAS wild-type
[3] = KD ratio NRAS/KRAS, class symbols
[4] = KD ratio HRAS/KRAS, class symbols

Sequence of GDP-bound HRAS wild-type protein (P01112 whole entry): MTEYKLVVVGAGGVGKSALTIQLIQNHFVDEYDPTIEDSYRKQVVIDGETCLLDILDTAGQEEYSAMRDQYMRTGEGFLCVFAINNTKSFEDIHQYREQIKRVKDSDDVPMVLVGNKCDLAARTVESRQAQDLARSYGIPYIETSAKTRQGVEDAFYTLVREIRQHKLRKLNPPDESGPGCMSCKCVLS
Sequence of GDP-bound NRAS wild-type protein (P01111 whole entry): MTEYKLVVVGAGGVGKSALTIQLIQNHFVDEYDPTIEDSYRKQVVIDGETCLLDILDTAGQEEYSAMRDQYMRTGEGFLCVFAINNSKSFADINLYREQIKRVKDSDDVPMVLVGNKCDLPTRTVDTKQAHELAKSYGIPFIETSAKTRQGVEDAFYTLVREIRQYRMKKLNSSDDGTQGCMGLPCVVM

CCO[C@@H]1C[C@H]2C(=O)NC3(CCC3)C(=O)N(C)[C@@H](C3CCCC3)C(=O)N(C)[C@H](C(=O)N(C)C)CC(=O)N(C)[C@@H](CC)C(=O)N[C@@H]([C@@H](C)CC)C(=O)N3C[C@H](OCC)C[C@H]3C(=O)N(C)[C@H]3C/C=C\CCN(C3=O)[C@@H](Cc3ccc(C(F)(F)F)cc3)C(=O)N(C)CC(=O)N[C@@H](CCc3cc(F)c(C(F)(F)F)c(F)c3)C(=O)N2C1 [PP1057]
NRAS/KRAS (ratio of KD value with respect to NRAS to KD value with respect to KRAS) ([1]; SPR): A (a compound having 10 or more and less than 20 is denoted as A) | HRAS/KRAS (ratio of KD value with respect to HRAS to KD value with respect to KRAS) ([2]; SPR): B (a compound having 3 or more and less than 10 is denoted as B)

CCCN1C(=O)[C@@H]2CCN2C(=O)[C@H](C)N(C)C(=O)[C@H]([C@@H](C)CC)NC(=O)[C@H](CC(C)C)N(C)C(=O)C[C@@H](C(=O)N2CCOCC2)N(C)C(=O)[C@H](C2CCCC2)N(C)C(=O)C2(CCCC2)NC(=O)[C@@H]2CC3(CC3)CN2C(=O)[C@H](CCc2ccc(C(F)(F)F)c(Cl)c2)NC(=O)CN(C)C(=O)[C@@H]1Cc1ccc(C(F)(F)F)cc1 [PP0282] ([NMeL]I[NMeA][Aze][NPrPhe(4-CF3)][Sar][hPhe(3-Cl-4-CF3)][Pro(4-spirocPr)][Ac5c][NMeGly(cPent)][NMeD]-Morpholide; lactam N-11)
NRAS/KRAS (ratio of KD for GDP-bound NRAS wild-type to KD for KRAS) ([1]; KD ratio NRAS/KRAS, SPR): C (A compound having a KD ratio of 0.1 or more and less than 3 is denoted as C) | HRAS/KRAS (ratio of KD for GDP-bound HRAS wild-type to KD for KRAS) ([2]; KD ratio HRAS/KRAS, SPR): C (A compound having a KD ratio of 0.1 or more and less than 3 is denoted as C)

CC[C@H](C)[C@@H]1NC(=O)[C@H](C)N(C)C(=O)C[C@@H](C(=O)N(C)C)N(C)C(=O)[C@H](C2CCCC2)N(C)C(=O)C2(CCCC2)NC(=O)[C@@H]2CC(F)(F)CN2C(=O)[C@H](CCc2cc(F)c(C(F)(F)F)c(F)c2)NC(=O)CN(C)C(=O)[C@H](Cc2ccc(C(F)(F)F)cc2)N2CCCC[C@@H](C2=O)N(C)C(=O)CN(C)C1=O [PP0583]
NRAS/KRAS (ratio of KD value with respect to GDP-bound NRAS wild-type protein to KD value with respect to KRAS) ([1]; KD ratio NRAS/KRAS, SPR): C (A compound having a KD ratio of 0.1 or more and less than 3 is denoted as C) | HRAS/KRAS (ratio of KD value with respect to GDP-bound HRAS wild-type protein to KD value with respect to KRAS) ([2]; KD ratio HRAS/KRAS, SPR): C (A compound having a KD ratio of 0.1 or more and less than 3 is denoted as C)

CCO[C@@H]1C[C@H]2C(=O)NC3(CCC3)C(=O)N(C)[C@@H](C3CCCC3)C(=O)N(C)[C@H](C(=O)N(C)CCOC)CC(=O)N(C)[C@@H](CC(C)C)C(=O)N[C@@H]([C@@H](C)CC)C(=O)N(C)CC(=O)N(C)[C@H]3C/C=C\CCN(C3=O)[C@@H](Cc3ccc(C(F)(F)F)cc3)C(=O)N(C)CC(=O)N[C@@H](CCc3ccc4sccc4c3)C(=O)N2C1 [PP1325]
NRAS/KRAS (ratio of KD value for GDP-bound NRAS wild-type protein to KD value for KRAS) ([1]; SPR, KD ratio class): A (a compound having 10 or more and less than 20 is denoted as A) | HRAS/KRAS (ratio of KD value for GDP-bound HRAS wild-type protein to KD value for KRAS) ([2]; SPR, KD ratio class): A (a compound having 10 or more and less than 20 is denoted as A)

CCC[C@H]1C(=O)N[C@@H]([C@@H](C)CC)C(=O)N(C)CC(=O)N(C)[C@H]2C/C=C\CCN(C2=O)[C@@H](Cc2ccc(C(F)(F)F)cc2)C(=O)N(C)CC(=O)N[C@@H](CCc2ccc(Cl)c(Cl)c2)C(=O)N2CC[C@H]2C(=O)NC2(CC(C)(C)C2)C(=O)N(C)[C@@H](C(CC)CC)C(=O)N(C)[C@H](C(=O)N(C)C)CC(=O)N1C [PP2921]
NRAS/KRAS (ratio of KD value with respect to GDP-bound NRAS wild-type protein to KD value with respect to KRAS) [1, 3]: AA (a compound having 20 or more is denoted as AA) | HRAS/KRAS (ratio of KD value with respect to GDP-bound HRAS wild-type protein to KD value with respect to KRAS) [2, 4]: A (a compound having 10 or more and less than 20 is denoted as A)

CCOC[C@H]1C(=O)N[C@@H]([C@@H](C)CC)C(=O)N(C)CC(=O)N(C)[C@H]2C/C=C\CCN(C2=O)[C@@H](Cc2ccc(C(F)(F)F)cc2)C(=O)N(C)CC(=O)N[C@@H](CCc2ccc(Cl)c(Cl)c2)C(=O)N2C[C@H](OCC)C[C@H]2C(=O)NC2(CC(C)(C)C2)C(=O)N(C)[C@@H](CC2CCC2)C(=O)N(C)[C@H](C(=O)N(C)C)CC(=O)N1C [PP2767]
NRAS/KRAS (ratio of KD value with respect to GDP-bound NRAS wild-type protein to KD value with respect to KRAS) [1, 3]: A (a compound having 10 or more and less than 20 is denoted as A) | HRAS/KRAS (ratio of KD value with respect to GDP-bound HRAS wild-type protein to KD value with respect to KRAS) [2, 4]: A (a compound having 10 or more and less than 20 is denoted as A)

CCCN1C(=O)CN(C)C(=O)CN(C)C(=O)[C@H]([C@@H](C)CC)NC(=O)[C@@H]2CCCCCCOc3ccc(cc3)C[C@H]1C(=O)N(C)CC(=O)N[C@@H](CCc1cc(F)c(C(F)(F)F)c(F)c1)C(=O)N1C[C@H](OCC)C[C@H]1C(=O)NC1(CCCC1)C(=O)N(C)[C@@H](C1CCCC1)C(=O)N(C)[C@H](C(=O)N(C)C)CC(=O)N2C [PP0896]
NRAS/KRAS (ratio of KD value with respect to NRAS to KD value with respect to KRAS) ([1]; SPR): C (A compound having a KD ratio of 0.1 or more and less than 3 is denoted as C) | HRAS/KRAS (ratio of KD value with respect to HRAS to KD value with respect to KRAS) ([2]; SPR): C (A compound having a KD ratio of 0.1 or more and less than 3 is denoted as C)

— patent US20250230193A1, “CYCLIC COMPOUND HAVING SELECTIVE KRAS INHIBITORY EFFECT ON HRAS AND NRAS” (CHUGAI SEIYAKU KABUSHIKI KAISHA, priority 2022, published 2025)
